Consider 15 compounds from patent US11618767B2, “Carboxy substituted glucocorticoid receptor agonists” (Eli Lilly and Company, priority 2021, dated 2023).

This experiment addresses T1, GR-LBD (Homo sapiens, UniProt P04150).
T1 construct: purchased Life Technologies A15899
T1 sequence (P04150 524-758 limits assumed): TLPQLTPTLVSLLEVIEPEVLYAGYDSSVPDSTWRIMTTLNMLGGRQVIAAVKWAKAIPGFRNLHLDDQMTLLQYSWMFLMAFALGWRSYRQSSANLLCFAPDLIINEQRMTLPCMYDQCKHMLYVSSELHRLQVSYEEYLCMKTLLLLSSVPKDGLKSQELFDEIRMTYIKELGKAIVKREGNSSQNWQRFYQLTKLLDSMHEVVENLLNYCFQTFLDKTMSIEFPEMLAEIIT
In words: hGR CoActivator Recruitment Assay (LanthaScreen TR-Fret GR Coactivator Assay). The format is biochemical. The note with it: TR-FRET emission ratio 520/490; 10-point serial dilution, top concentration 200 nM; Fluorescein-SRC1-4 coactivator peptide; read-out: relative IC50. The procedure:
hGR CoActivator Recruitment Assay The activity of glucocorticoid compounds was measured using the LanthaScreen TR-Fret GR Coactivator Assay from Life Technologies (A15899). The compounds were acoustically transferred to an assay plate in a 3-fold 10-point serial dilution with a top concentration of 200 nM. Ten microliters of a 2× solution of GR-LBD was added to the compound plate and incubated for 10 min. Then ten microliters of a 2× solution of Fluoresein-SRC1-4 and Tb labelled anti-GST antibody was added to the plate. The plate was incubated in the dark for two hours and then read on an Envision plate reader, with excitation at 340 nm and emission at 520 nm (Fluorescein) and 490 nm (Terbium). The emission ratio of 520/490 was analyzed in Genedata. To obtain percent activity, the data was compared to a negative control of DMSO and positive control of […] dexamethasone.
Background: Time-resolved FRET reads energy transfer from a long-lived donor to a nearby acceptor.
By IC50 is commonly meant the point on the concentration scale where inhibition reaches its midpoint. Turning to `C[C@]12C=CC(=O)C=C1CC[C@@H]1[C@@H]2[C@@H](O)C[C@@]2(C)[C@H]1C[C@H]1O[C@@H](c3ccc(Cc4ccc(C(=O)O)cc4)cc3F)O[C@]12C(=O)CO` (single isomer, unassigned) [Example 1], the IC50 was 2.14 nM. On to `C[C@]12C=CC(=O)C=C1CC[C@@H]1[C@@H]2[C@@H](O)C[C@@]2(C)[C@H]1C[C@H]1O[C@H](c3ccc(Cc4ccc(C(=O)O)cc4)cc3F)O[C@]12C(=O)CO` (single isomer, unassigned) [Example 2], for which the IC50 came out at 4.5 nM.

As for `Cc1ccc(OCc2cccc(C(=O)O)c2)c(F)c1[C@@H]1O[C@@H]2C[C@H]3[C@@H]4CCC5=CC(=O)C=C[C@]5(C)[C@H]4[C@@H](O)C[C@]3(C)[C@]2(C(=O)CO)O1` [Example 3, 3-((2-Fluoro-3-((6aR,6bS,7S,8aS,8bS,10R,11aR,12aS,12bS)-7-hydroxy-8b-(2-hydroxyacetyl)-6a, 8a-dimethyl-4-oxo-2,4,6a,6b,7,8,8a,8b,11a,12,12a,12b-dodecahydro-1H-naphtho[2′,1′:4,5]indeno[1,2-d][1,3]dioxol-10-yl)-4-methylphenoxy)methyl)benzoic Acid], the half-maximal inhibitory concentration (IC50) was below 200 nM. Turning to `Cc1ccc(OCc2cccc(C(=O)O)c2)c(F)c1[C@H]1O[C@@H]2C[C@H]3[C@@H]4CCC5=CC(=O)C=C[C@]5(C)[C@H]4[C@@H](O)C[C@]3(C)[C@]2(C(=O)CO)O1` [Example 4, 3-((2-Fluoro-3-((6aR,6bS,7S,8aS,8bS,10 S,11aR,12a5,12bS)-7-hydroxy-8b-(2-hydroxyacetyl)-6a, 8a-dimethyl-4-oxo-2,4,6a,6b,7,8,8a, 8b,11a,12,12a,12b-dodecahydro-1H-naphtho[2′,1′:4,5]indeno[1,2-d][1,3]dioxol-10-yl)-4-methylphenoxy)methyl)benzoic Acid], the IC50 is below 200 nM.

Turning to `C[C@]12C=CC(=O)C=C1CC[C@@H]1[C@@H]2[C@@H](O)C[C@@]2(C)[C@H]1C[C@H]1O[C@@H](c3ccc(Oc4ccc(C(=O)O)cc4)cc3)O[C@]12C(=O)CO` [Example 5], the IC50 is below 200 nM.

On to `C[C@]12C=CC(=O)C=C1CC[C@@H]1[C@@H]2[C@@H](O)C[C@@]2(C)[C@H]1C[C@H]1O[C@H](c3ccc(Oc4ccc(C(=O)O)cc4)cc3)O[C@]12C(=O)CO` [Example 6], for which the IC50 was below 200 nM. For `C[C@]12C=CC(=O)C=C1CC[C@@H]1[C@@H]2[C@@H](O)C[C@@]2(C)[C@H]1C[C@H]1O[C@@H](c3ccc(Oc4cccc(C(=O)O)c4)cc3)O[C@]12C(=O)CO` [Example 7], the IC50 is below 200 nM.

For `C[C@]12C=CC(=O)C=C1CC[C@@H]1[C@@H]2[C@@H](O)C[C@@]2(C)[C@H]1C[C@H]1O[C@H](c3ccc(Oc4cccc(C(=O)O)c4)cc3)O[C@]12C(=O)CO` [Example 8], the IC50 was below 200 nM. For `C[C@]12C=CC(=O)C=C1CC[C@@H]1[C@@H]2[C@@H](O)C[C@@]2(C)[C@H]1C[C@H]1O[C@@H](c3ccc(Cc4cccc(C(=O)O)c4)cc3F)O[C@]12C(=O)CO` [Example 9], the IC50 is below 200 nM. For the compound `C[C@]12C=CC(=O)C=C1CC[C@@H]1[C@@H]2[C@@H](O)C[C@@]2(C)[C@H]1C[C@H]1O[C@H](c3ccc(Cc4cccc(C(=O)O)c4)cc3F)O[C@]12C(=O)CO` [Example 10], the IC50 is above 200 nM. For the compound `COc1ccc(OCc2cccc(C(=O)O)c2)c(F)c1[C@@H]1O[C@@H]2C[C@H]3[C@@H]4CCC5=CC(=O)C=C[C@]5(C)[C@H]4[C@@H](O)C[C@]3(C)[C@]2(C(=O)CO)O1` [Example 11], the IC50 is below 200 nM. For `COc1ccc(OCc2cccc(C(=O)O)c2)c(F)c1[C@H]1O[C@@H]2C[C@H]3[C@@H]4CCC5=CC(=O)C=C[C@]5(C)[C@H]4[C@@H](O)C[C@]3(C)[C@]2(C(=O)CO)O1` [Example 12], the IC50 was below 200 nM. As for `COc1ccc(OCc2ccccc2C(=O)O)c(F)c1[C@@H]1O[C@@H]2C[C@H]3[C@@H]4CCC5=CC(=O)C=C[C@]5(C)[C@H]4[C@@H](O)C[C@]3(C)[C@]2(C(=O)CO)O1` [Example 13], the IC50 is above 200 nM. On to `COc1ccc(OCc2ccccc2C(=O)O)c(F)c1[C@H]1O[C@@H]2C[C@H]3[C@@H]4CCC5=CC(=O)C=C[C@]5(C)[C@H]4[C@@H](O)C[C@]3(C)[C@]2(C(=O)CO)O1` [Example 14], for which the IC50 was below 200 nM. As to `Cc1ccc(OCc2ccccc2C(=O)O)c(F)c1[C@H]1O[C@@H]2C[C@H]3[C@@H]4CCC5=CC(=O)C=C[C@]5(C)[C@H]4[C@@H](O)C[C@]3(C)[C@]2(C(=O)CO)O1` [Example 15], the IC50 is below 200 nM.
